According to ChEMBL document CHEMBL1201862, “PubChem BioAssay data set” (2004):
The source made the active and inactive calls.

Legend:
cells [1] = type: functional, cell-based
Protein skinhead-1 = target: T1, Protein skinhead-1 (Caenorhabditis elegans, UniProt P34707); type: functional
T1 sequence (P34707 whole entry): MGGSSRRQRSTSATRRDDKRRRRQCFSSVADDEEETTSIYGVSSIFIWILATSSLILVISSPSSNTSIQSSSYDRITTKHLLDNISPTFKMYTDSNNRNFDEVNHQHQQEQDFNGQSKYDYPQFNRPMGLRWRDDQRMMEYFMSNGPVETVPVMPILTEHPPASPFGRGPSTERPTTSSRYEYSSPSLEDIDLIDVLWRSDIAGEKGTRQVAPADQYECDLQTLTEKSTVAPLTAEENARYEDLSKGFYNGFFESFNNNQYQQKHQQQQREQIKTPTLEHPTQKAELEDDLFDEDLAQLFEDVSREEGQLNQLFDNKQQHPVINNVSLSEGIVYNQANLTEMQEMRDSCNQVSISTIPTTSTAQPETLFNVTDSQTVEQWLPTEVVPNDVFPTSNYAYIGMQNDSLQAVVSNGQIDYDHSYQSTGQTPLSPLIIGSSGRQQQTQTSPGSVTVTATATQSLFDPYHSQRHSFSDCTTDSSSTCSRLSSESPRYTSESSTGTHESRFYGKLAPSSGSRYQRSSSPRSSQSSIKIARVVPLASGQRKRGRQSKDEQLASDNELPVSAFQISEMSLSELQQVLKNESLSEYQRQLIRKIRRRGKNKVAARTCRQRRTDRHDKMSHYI

[2] = target: T2, Nuclear receptor subfamily 0 group B member 1 (Homo sapiens, UniProt P51843); type: functional, cell-based;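 note: HEK293T cells transfected with SF-1 and DAX-1 plus StAR promoter luciferase reporter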
T2 sequence (P51843 whole entry): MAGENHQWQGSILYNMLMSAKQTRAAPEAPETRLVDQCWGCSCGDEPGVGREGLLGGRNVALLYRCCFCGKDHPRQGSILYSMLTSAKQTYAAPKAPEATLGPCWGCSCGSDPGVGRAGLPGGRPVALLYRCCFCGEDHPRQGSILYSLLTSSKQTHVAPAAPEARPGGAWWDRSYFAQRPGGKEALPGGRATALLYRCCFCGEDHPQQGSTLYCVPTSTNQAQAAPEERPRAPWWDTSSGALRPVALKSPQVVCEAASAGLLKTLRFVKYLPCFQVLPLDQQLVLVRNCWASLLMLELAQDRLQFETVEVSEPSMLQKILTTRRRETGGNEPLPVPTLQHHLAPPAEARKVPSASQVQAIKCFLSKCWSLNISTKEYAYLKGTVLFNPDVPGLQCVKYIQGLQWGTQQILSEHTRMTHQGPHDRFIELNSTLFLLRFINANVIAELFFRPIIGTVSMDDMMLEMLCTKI

[3] = target: T3, Low molecular weight phosphotyrosine protein phosphatase (Homo sapiens, UniProt P24666); type: functional; conditions: read-out: IC50_Mean
T3 sequence (P24666 whole entry): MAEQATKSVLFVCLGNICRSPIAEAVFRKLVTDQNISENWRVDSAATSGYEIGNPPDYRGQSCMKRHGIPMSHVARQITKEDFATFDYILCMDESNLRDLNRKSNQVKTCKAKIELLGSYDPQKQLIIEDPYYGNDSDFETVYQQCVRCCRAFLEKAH

[4] = target: T3, Low molecular weight phosphotyrosine protein phosphatase; type: functional; conditions: read-out: IC50_Mean; remark: listed apart in the source
[5] = target: T4, Hepatocyte nuclear factor 4-alpha (Homo sapiens, UniProt P41235); type: functional, cell-based;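 note: biochemical luminescence-based dose-response counterscreen measuring inhibition of HNF4 dimerization, run alongside a screen for blockers of ABHD5–perilipin-5 interaction; split luciferase complementation of HNF4 fusion proteins in cell lysate measuring dimerization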
T4 sequence (P41235 whole entry): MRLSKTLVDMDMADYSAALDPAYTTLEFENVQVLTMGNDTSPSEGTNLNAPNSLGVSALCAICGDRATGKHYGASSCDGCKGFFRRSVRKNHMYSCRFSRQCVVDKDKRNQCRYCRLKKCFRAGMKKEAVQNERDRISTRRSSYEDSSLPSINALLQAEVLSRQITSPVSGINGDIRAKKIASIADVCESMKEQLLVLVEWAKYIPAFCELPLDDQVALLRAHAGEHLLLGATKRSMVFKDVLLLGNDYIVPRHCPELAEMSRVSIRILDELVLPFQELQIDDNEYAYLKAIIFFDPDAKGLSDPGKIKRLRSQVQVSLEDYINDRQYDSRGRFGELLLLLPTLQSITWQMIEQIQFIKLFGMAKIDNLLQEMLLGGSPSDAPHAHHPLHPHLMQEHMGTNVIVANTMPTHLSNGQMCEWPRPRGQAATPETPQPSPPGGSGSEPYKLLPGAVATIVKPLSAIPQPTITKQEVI

Paired box protein Pax-8 = Paired box protein Pax-8 (Homo sapiens, UniProt Q06710); test: inhibitors of PAX8-driven TPO luciferase reporter, dose response, RMG-I cells, cherry-pick (AID 687027); type: functional, cell-based;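 note: luciferase reporter driven by Pax8 target thyroperoxidase promoter measured by SteadyGlo luminescence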
[6] = HeLa cell cytotoxicity, dose response, cytotoxicity control for MgcRacGAP inhibitor project (AID 624300); type: functional
[7] = non-specific cell cytotoxicity, dose response, cytotoxicity control for PAX8 inhibitor project, plate reader, dry powder samples (AID 743021); type: functional, cell-based
[8] = target: T5, DNA repair protein RAD52 homolog (Homo sapiens, UniProt P43351); type: functional, biochemical
T5 sequence (P43351 whole entry): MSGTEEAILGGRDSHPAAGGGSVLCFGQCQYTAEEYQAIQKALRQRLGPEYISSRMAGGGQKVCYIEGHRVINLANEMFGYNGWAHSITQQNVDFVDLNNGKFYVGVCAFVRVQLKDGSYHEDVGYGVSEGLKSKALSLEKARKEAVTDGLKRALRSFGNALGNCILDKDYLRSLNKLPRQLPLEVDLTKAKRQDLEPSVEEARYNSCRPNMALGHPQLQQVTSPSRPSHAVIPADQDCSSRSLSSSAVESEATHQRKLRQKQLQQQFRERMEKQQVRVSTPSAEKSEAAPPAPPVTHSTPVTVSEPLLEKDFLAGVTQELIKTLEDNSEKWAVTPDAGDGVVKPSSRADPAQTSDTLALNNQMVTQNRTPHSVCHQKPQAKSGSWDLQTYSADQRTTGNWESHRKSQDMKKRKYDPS

[9] = miR-122 activators in hepatoma reporter cells, dose response, cell-based, Huh7 psiCHECK-miR122, Renilla luciferase, cherry-picked (AID 651956); type: functional;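 note: huh7 hepatoma cells stably carrying a psiCHECK-2 miR-122 sensor plasmid; renilla luciferase signal reporting endogenous miR-122 activity after 48 h compound exposure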
[10] = off-target signal loss in HeLa-CEM21 co-culture – HeLa F-luc CTL cells, cherry-picked, counter-screen for HIV-1 Env fusion inhibitor project, dose response (AID 652040); type: functional, cell-based;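 note: potency for signal decrease marking cytotoxic or nonspecific inhibition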
[11] = ZM109 Env clade C HIV-1 fusion inhibitors, dose response, HeLa effector, CEM target cells, luciferase, cherry-pick (AID 652058); type: functional, cell-based
[12] = inhibitors of HIV Env-driven cell fusion, dose response, cherry-pick (AID 652057); type: functional, cell-based
[13] = inhibitors of clade B AD8 Env fusion, dose response, cell-based, cherry-pick (AID 652062); type: functional;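 note: luciferase signal from cell-cell fusion driven by HIV-1 clade B AD8 Env; potency is for inhibitors of fusion seen as a drop in luminescence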
[14] = luciferase reporter signal reduction – luminescence, H4-C neuroglioblastoma cells, dose response (AID 2458); type: functional, cell-based;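 note: H4 neuroglioblastoma cells stably carrying a luciferase reporter gene fusion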
[15] = inhibitors of SNCA 5'UTR-driven translation, confirmation, luminescence, H4 neuroglioblastoma cells, dose confirmation (AID 2454); type: functional, cell-based;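 note: H4 neuroglioblastoma cells carrying an alpha-synuclein 5'UTR luciferase reporter; potency for inhibition of the luciferase signal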
BJ [16] = test: cells; type: functional, cell-based; conditions: Homo sapiens
[17] = inhibitors of SNCA 5'UTR-driven reporter translation, confirmation, H4 neuroglioma cells, luminescence (AID 1988); type: functional, cell-based
[18] = inhibitors of firefly luciferase expression or activity, dose response, H4 neuroglioma cells, luminescence (AID 1990); type: functional, cell-based
cells [19] = type: functional, cell-based; remark: listed apart in the source
BJ [20] = test: cytotoxicity toward BJ-TERT fibroblasts, dose response, cell-based, RAS-independent, luminescence (AID 1933); type: functional; conditions: Homo sapiens
BJ [21] = test: cytotoxicity toward BJ-TERT-LT-ST fibroblasts, dose response, cell-based, RAS-independent, luminescence (AID 1935); type: functional; conditions: Homo sapiens;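 note: BJ fibroblasts immortalized with TERT plus LT and ST oncogenes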
[22] = Luminescence Cell-Based Dose Response HTS to Identify Inhibitors of 5'UTR Stem-Loop Driven Prion Protein mRNA Translation in H4 Neuroglioblastoma Cells. [Related pubchem assays: 1827 (Project Summary), 1813 (Primary HTS)]; type: functional
[23] = cytotoxicity toward DRD oncogenic fibroblasts, dose response, cell-based, non-viral oncogenic, luminescence (AID 1934); type: functional; conditions: Homo sapiens
[24] = target: T6, Heat shock factor protein 1 (Mus musculus, UniProt P38532); test: inhibition of MG132-induced HSE-luciferase signal, confirmation, cell-based, NIH3T3, luminescence, dose retest (AID 2382); type: functional;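 note: NIH3T3 fibroblasts with HSF1-driven luciferase reporter stressed by proteasome inhibitor MG132; luminescence from HSF1-driven luciferase expression after 8 hours of MG132 stress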
T6 sequence (P38532 whole entry): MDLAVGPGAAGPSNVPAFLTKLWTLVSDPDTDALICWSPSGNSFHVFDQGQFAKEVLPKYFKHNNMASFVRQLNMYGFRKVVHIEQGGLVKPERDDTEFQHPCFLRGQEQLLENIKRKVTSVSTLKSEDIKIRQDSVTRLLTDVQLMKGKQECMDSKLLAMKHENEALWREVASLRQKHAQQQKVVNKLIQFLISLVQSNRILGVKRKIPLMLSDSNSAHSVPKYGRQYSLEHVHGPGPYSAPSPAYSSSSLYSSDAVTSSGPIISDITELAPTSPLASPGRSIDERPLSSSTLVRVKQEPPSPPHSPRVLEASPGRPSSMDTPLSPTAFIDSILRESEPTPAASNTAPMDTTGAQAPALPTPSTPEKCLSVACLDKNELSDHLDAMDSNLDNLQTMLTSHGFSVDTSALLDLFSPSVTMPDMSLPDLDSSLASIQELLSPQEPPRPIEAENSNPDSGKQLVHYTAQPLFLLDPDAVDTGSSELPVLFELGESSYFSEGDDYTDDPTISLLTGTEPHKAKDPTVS

[25] = target: Photoreceptor-specific nuclear receptor (Homo sapiens, UniProt Q9Y5X4); type: functional, cell-based;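 note: CHO-S cells with Gal4-NCOR and VP16-NR2E3 two-hybrid luciferase reporter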
[26] = growth suppression of beta-catenin-knockout colon cells, dose response, cell-based, HCT116, human colon tumor (AID 1045); type: functional;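 note: HCT116 colon tumor cells with beta catenin knocked out; cells exposed to compound for 60 hours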
[27] = Luminescence Cell-Based Dose Retest to Confirm Inhibitors of Cancer Stem Cells. [Related pubchem assays (depositor defined):AID2717, AID2721]; type: functional; conditions: Homo sapiens
[28] = growth suppression of PTEN-null colon cells, dose response, cell-based, HCT116 PTEN knockout (AID 1047); type: functional;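 note: HCT116 colon tumor cells with PTEN knocked out; cells exposed to compound for 60 hours before readout; potency for loss of cell viability measured by luminescence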
cells [29] = test: cells
[30] = HEp-2 cell cytotoxicity, dose response, cytotoxicity control for RSV inhibitor project, HTS (AID 2410); type: functional; conditions: human respiratory syncytial virus

Chain of Photoreceptor-specific nuclear receptor (Q9Y5X4 whole entry, the tested form may be a part): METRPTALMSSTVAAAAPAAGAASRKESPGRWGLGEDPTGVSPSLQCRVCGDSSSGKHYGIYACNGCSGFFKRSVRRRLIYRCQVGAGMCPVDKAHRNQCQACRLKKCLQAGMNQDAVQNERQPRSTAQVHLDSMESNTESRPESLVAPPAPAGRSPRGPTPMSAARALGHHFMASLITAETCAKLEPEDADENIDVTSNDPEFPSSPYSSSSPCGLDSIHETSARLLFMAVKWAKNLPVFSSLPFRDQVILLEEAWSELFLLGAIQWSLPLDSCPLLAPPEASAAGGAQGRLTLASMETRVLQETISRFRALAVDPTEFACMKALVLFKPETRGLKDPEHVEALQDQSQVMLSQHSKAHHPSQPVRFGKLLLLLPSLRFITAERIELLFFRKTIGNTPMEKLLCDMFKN
Chain of Paired box protein Pax-8 (Q06710 whole entry): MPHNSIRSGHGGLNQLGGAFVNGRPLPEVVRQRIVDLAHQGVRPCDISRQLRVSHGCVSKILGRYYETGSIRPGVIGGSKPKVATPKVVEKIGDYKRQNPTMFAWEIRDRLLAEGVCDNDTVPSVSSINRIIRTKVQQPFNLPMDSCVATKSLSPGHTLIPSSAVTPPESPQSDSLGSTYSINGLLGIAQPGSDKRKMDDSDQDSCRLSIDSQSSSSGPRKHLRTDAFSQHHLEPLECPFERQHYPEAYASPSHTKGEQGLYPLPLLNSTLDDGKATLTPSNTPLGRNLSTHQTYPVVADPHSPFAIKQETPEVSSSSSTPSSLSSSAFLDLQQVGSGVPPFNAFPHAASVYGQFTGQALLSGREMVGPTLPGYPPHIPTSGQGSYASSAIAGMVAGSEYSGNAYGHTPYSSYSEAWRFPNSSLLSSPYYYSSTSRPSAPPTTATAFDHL

O=C(/C(=C/Nc1ccc(Br)cc1)C(=O)C(F)(F)F)c1ccco1
IC50 (cells [1]): > 67.5 µM (inactive) | IC50 (Protein skinhead-1): 27.2 µM (active) | IC50 [2]: > 67.5 µM (inactive)

CN1CCc2c(sc(/N=C/c3c[nH]c4ccccc34)c2C(N)=O)C1
IC50 [3]: > 80 µM (inactive) | IC50 [4]: 57.2 µM (inactive)

CCCCCNC(=O)C(C1CC1)n1c(=O)c(-c2ccco2)nc2ccccc21 (stereo not drawn)
IC50 [5]: 6.11 µM (active)

COc1ccc2cc(CNCCOCCOCCNCc3ccc4cc(OC)ccc4c3)ccc2c1
AC50 (Paired box protein Pax-8): 19.1 µM (active) | CC50 [6]: 9.1 µM (active) | AC50 [7]: 20.3 µM (active) | AC50 [8]: 2.45 µM (active)

COCC(=O)N(C)C[C@H]1[C@H](c2ccccc2)[C@@H](CO)N1C(=O)NC(C)C
AC50 [9]: 50.3 µM (active)

C=C1CCN([C@@H](Cc2ccccc2)C(=O)Nc2ccc(OC)cc2)S(=O)(=O)c2ccccc21
AC50 [10]: 1.31 µM (active) | AC50 [11]: 0.848 µM (active) | AC50 [12]: 0.923 µM (active) | AC50 [13]: 2.03 µM (active)

CCOC(=O)CSC1=C(C#N)C(c2ccc(C)o2)CC(=O)N1 (stereo not drawn)
IC50 (cells [1]): > 67.6 µM (inactive) | EC50 [14]: 0.961 µM (active) | EC50 [15]: > 12 µM (inconclusive) | IC50 [2]: > 67.6 µM (inactive) | EC50 (BJ [16]): 14.9 µM (active) | EC50 [17]: < 0.1 µM (active) | EC50 [18]: 2.61 µM (active) | EC50 (cells [19]): 1.56 µM (active) | EC50 (BJ [20]): 1.31 µM (active) | EC50 (BJ [21]): 1.36 µM (active) | EC50 [22]: 0.894 µM (active) | EC50 [23]: 1.04 µM (active)

COC(=O)C[C@@H]1CC[C@@H]2[C@H](COc3ccc(NC(=O)Nc4cccc(F)c4)cc3C(=O)N2C)O1
AC50 [9]: 40.1 µM (active)

CCOC(=O)Cc1nnc2c(Nc3ccccc3F)nc3nonc3n12
EC50 [24]: > 195 µM (not active) | IC50 [25]: 3.87 µM (active)

CCCCCn1c(N)c(-c2nc3ccccc3o2)c2c([N+](=O)[O-])nn(CC)c(=O)c21
IC50 [3]: 5.88 µM (active) | IC50 [4]: 8.25 µM (active)

Cc1sc(NC(=O)/C=C/c2ccc3c(c2)OCO3)nc1-c1ccccc1
IC50 [25]: 7.04 µM (active)

O=C/C(=N\Nc1ccc(Cl)cc1)C(=O)c1ccncc1
EC50 [26]: 42.2 µM (active) | IC50 [5]: 28.9 µM (inactive) | AC50 [27]: 5.23 µM (active) | EC50 [28]: 116 µM (active)

O=C(NCc1ccco1)c1ccc(Cn2c(=O)c3sccc3n(Cc3ccc(F)cc3)c2=O)cc1
IC50 (cells [29]): 4.76 µM (active) | AC50 [10]: < 0.26 µM (active) | AC50 [11]: 0.349 µM (active) | AC50 [12]: < 0.26 µM (active) | CC50 [30]: 44.8 µM (active) | AC50 [13]: 0.665 µM (active)
